# What was measured:
# Type in all cases: functional
# COLO 205 [1] = test: Induction of apoptosis in human COLO205 cells assessed as late apoptosis cells level at 10 uM after 24 hrs by Annexin V/propidium iodide staining-based fluorescence microscopy
# T47D [2] = test: Growth inhibition of human T47D cells after 48 hrs by sulforhodamine B assay; conditions: for CC50: read-out: LC50 (the source's name)
# SK-MEL-5 = test: Growth inhibition of human SK-MEL-5 cells assessed as cell growth at 10^-6 M after 48 hrs by sulforhodamine B assay; conditions: SK-MEL-5, 48 h, read-out: Activity
# SK-MEL-2 [3] = test: Growth inhibition of human SK-MEL-2 cells assessed as cell growth at 10^-6 M after 48 hrs by sulforhodamine B assay; conditions: SK-MEL-2, 48 h, read-out: Activity
# [4] = Growth inhibition of human LOXIMVI cells assessed as cell growth at 10^-6 M after 48 hrs by sulforhodamine B assay; conditions: LOX IMVI, read-out: Activity
# [5] = Growth inhibition of human SF295 cells assessed as cell growth at 10^-6 M after 48 hrs by sulforhodamine B assay; conditions: SF-295, 48 h, read-out: Activity
# [6] = Growth inhibition of human HCC2998 cells assessed as cell growth at 10^-6 M after 48 hrs by sulforhodamine B assay; conditions: HCC 2998, 48 h, read-out: Activity
# NCI-H322M = test: Growth inhibition of human NCI-H322M cells assessed as cell growth at 10^-6 M after 48 hrs by sulforhodamine B assay; conditions: read-out: Activity
# [7] = Growth inhibition of human OVCAR8 cells assessed as cell growth at 10^-7 M after 48 hrs by sulforhodamine B assay; conditions: OVCAR-8, 48 h, read-out: Activity
# [8] = Growth inhibition of human UACC257 cells assessed as cell growth at 10^-5 M after 48 hrs by sulforhodamine B assay; conditions: UACC-257, 48 h, read-out: Activity
# [9] = Growth inhibition of human RXF393 cells assessed as cell growth at 10^-6 M after 48 hrs by sulforhodamine B assay; conditions: RXF 393, 48 h, read-out: Activity
# HT-29 = test: Growth inhibition of human HT-29 cells assessed as cell growth at 10^-4 M after 48 hrs by sulforhodamine B assay; conditions: HT-29, 48 h, read-out: Activity
# NCI-H460 = test: Growth inhibition of human NCI-H460 cells assessed as cell growth at 10^-4 M after 48 hrs by sulforhodamine B assay; conditions: NCI-H460, 48 h, read-out: Activity
# SK-MEL-28 = test: Growth inhibition of human SK-MEL-28 cells assessed as cell growth at 10^-8 M after 48 hrs by sulforhodamine B assay; conditions: SK-MEL-28, 48 h; for growth at 0.01 µM: read-out: Activity; for CC50: read-out: pLC50 (the source's name) (converted); for TGI: read-out: pTGI (converted)
# MDA-MB-435 = test: Growth inhibition of human MDA-MB-435 cells assessed as cell growth at 10^-8 M after 48 hrs by sulforhodamine B assay; conditions: MDA-MB-435, 48 h; for growth at 0.01 µM: read-out: Activity; for TGI: read-out: pTGI (converted)
# SNB-75 = test: Growth inhibition of human SNB75 cells assessed as cell growth at 10^-8 M after 48 hrs by sulforhodamine B assay; conditions: SNB-75, 48 h; for growth at 0.01 µM: read-out: Activity; for TGI: read-out: pTGI (converted)
# SNB-19 = test: Growth inhibition of human SNB19 cells assessed as cell growth at 10^-8 M after 48 hrs by sulforhodamine B assay; conditions: SNB-19, 48 h; for growth at 0.01 µM: read-out: Activity; for TGI: read-out: pTGI (converted)
# NCI-H226 = test: Growth inhibition of human NCI-H226 cells assessed as cell growth at 10^-8 M after 48 hrs by sulforhodamine B assay; conditions: NCI-H226, 48 h; for growth at 0.01 µM: read-out: Activity; for TGI: read-out: pTGI (converted)
# [10] = Growth inhibition of human HOP92 cells assessed as cell growth at 10^-8 M after 48 hrs by sulforhodamine B assay; conditions: HOP-92, 48 h; for growth at 0.01 µM: read-out: Activity; for TGI: read-out: pTGI (converted)
# CCRF-CEM = test: Growth inhibition of human CCRF-CEM cells assessed as cell growth at 10^-8 M after 48 hrs by sulforhodamine B assay; conditions: for growth at 0.01 µM: read-out: Activity; for CC50: read-out: pLC50 (the source's name) (converted); for TGI: read-out: pTGI (converted)
# SN12C = test: Growth inhibition of human SN12C cells after 48 hrs by sulforhodamine B assay; conditions: for CC50: read-out: LC50 (the source's name)
# [11] = Growth inhibition of human NCI-ADR-RES cells after 48 hrs by sulforhodamine B assay; conditions: for CC50: read-out: LC50 (the source's name)
# M14 = test: Growth inhibition of human M14 cells after 48 hrs by sulforhodamine B assay; conditions: M14, 48 h; for CC50: read-out: LC50 (the source's name)
# HL-60(TB) = test: Growth inhibition of human HL-60(TB) cells after 48 hrs by sulforhodamine B assay; conditions: HL-60, 48 h; for CC50: read-out: LC50 (the source's name)
# T47D [12] = test: Growth inhibition of human T47D cells assessed as cell growth at 10^-4 M after 48 hrs by sulforhodamine B assay; conditions: read-out: Activity
# PC-3 = test: Growth inhibition of human PC3 cells assessed as cell growth at 10^-4 M after 48 hrs by sulforhodamine B assay; conditions: PC-3, 48 h, read-out: Activity
# SK-MEL-2 [13] = test: Growth inhibition of human SK-MEL-2 cells assessed as cell growth at 10^-7 M after 48 hrs by sulforhodamine B assay; conditions: SK-MEL-2, 48 h, read-out: Activity
# U-251 = test: Growth inhibition of human U251 cells assessed as cell growth at 10^-7 M after 48 hrs by sulforhodamine B assay; conditions: U-251, 48 h, read-out: Activity
# COLO 205 [14] = test: Growth inhibition of human COLO205 cells assessed as cell growth at 10^-7 M after 48 hrs by sulforhodamine B assay; conditions: COLO 205, 48 h, read-out: Activity
# NCI-H522 = test: Growth inhibition of human NCI-H522 cells assessed as cell growth at 10^-7 M after 48 hrs by sulforhodamine B assay; conditions: NCI-H522, 48 h, read-out: Activity
# [15] = Growth inhibition of human RXF393 cells assessed as cell growth at 10^-8 M after 48 hrs by sulforhodamine B assay; conditions: RXF 393, 48 h; for growth at 0.01 µM: read-out: Activity; for CC50: read-out: pLC50 (the source's name) (converted); for TGI: read-out: pTGI (converted)
compound,measurement,setting,value
Cc1ccc(S(=O)(=O)N2C/C(=C\c3cc(F)cc(F)c3)C(=O)/C(=C/c3cc(F)cc(F)c3)C2)cc1,Activity,COLO 205 [1],43%
same,GI50,T47D [2],1790 nM
same,TGI,T47D [2],6090 nM
same,CC50,T47D [2],54300 nM
same,growth at 1 µM,SK-MEL-5,3%
same,growth at 1 µM,SK-MEL-2 [3],89%
same,growth at 1 µM,[4],-82%
same,growth at 1 µM,[5],29%
same,growth at 1 µM,[6],35%
same,growth at 1 µM,NCI-H322M,101%
same,growth at 0.1 µM,[7],82%
same,growth at 10 µM,[8],-57%
same,growth at 1 µM,[9],44%
same,growth at 100 µM,HT-29,-75%
same,growth at 100 µM,NCI-H460,-72%
same,GI50,SK-MEL-28,468 nM
same,growth at 0.01 µM,SK-MEL-28,100%
same,CC50,SK-MEL-28,4790 nM
same,TGI,SK-MEL-28,1780 nM
same,GI50,MDA-MB-435,240 nM
same,LC50,MDA-MB-435,3630 nM
same,growth at 0.01 µM,MDA-MB-435,96%
same,TGI,MDA-MB-435,692 nM
same,GI50,SNB-75,2000 nM
same,LC50,SNB-75,26300 nM
same,growth at 0.01 µM,SNB-75,88%
same,TGI,SNB-75,5890 nM
same,GI50,SNB-19,219 nM
same,LC50,SNB-19,2820 nM
same,growth at 0.01 µM,SNB-19,87%
same,TGI,SNB-19,759 nM
same,GI50,NCI-H226,8710 nM
same,LC50,NCI-H226,> 100000 nM
same,growth at 0.01 µM,NCI-H226,97%
same,TGI,NCI-H226,39800 nM
same,GI50,[10],1120 nM
same,LC50,[10],9770 nM
same,growth at 0.01 µM,[10],72%
same,TGI,[10],3310 nM
same,GI50,CCRF-CEM,74.1 nM
same,growth at 0.01 µM,CCRF-CEM,95%
same,CC50,CCRF-CEM,> 100000 nM
same,TGI,CCRF-CEM,955 nM
same,GI50,SN12C,342 nM
same,TGI,SN12C,1310 nM
same,CC50,SN12C,4260 nM
same,GI50,[11],439 nM
same,TGI,[11],10100 nM
same,CC50,[11],76700 nM
same,GI50,M14,359 nM
same,TGI,M14,1400 nM
same,CC50,M14,5910 nM
same,GI50,HL-60(TB),289 nM
same,TGI,HL-60(TB),1740 nM
same,CC50,HL-60(TB),> 100000 nM
same,growth at 100 µM,T47D [12],-61%
same,growth at 100 µM,PC-3,-84%
same,growth at 0.1 µM,SK-MEL-2 [13],112%
same,growth at 0.1 µM,U-251,80%
same,growth at 0.1 µM,COLO 205 [14],106%
same,growth at 0.1 µM,NCI-H522,102%
same,GI50,[15],724 nM
same,growth at 0.01 µM,[15],96%
same,CC50,[15],5130 nM
same,TGI,[15],2140 nM
O=C1/C(=C/c2ccc(Cl)cc2Cl)CN(S(=O)(=O)c2ccccc2)C/C1=C\c1ccc(Cl)cc1Cl,Activity,COLO 205 [1],18%
same,GI50,T47D [2],1280 nM
same,TGI,T47D [2],100000 nM
same,CC50,T47D [2],> 100000 nM
same,growth at 1 µM,SK-MEL-5,94%
same,growth at 1 µM,SK-MEL-2 [3],98%
same,growth at 1 µM,[4],-37%
same,growth at 1 µM,[5],13%
same,growth at 1 µM,[6],13%
same,growth at 1 µM,NCI-H322M,35%
same,growth at 0.1 µM,[7],94%
same,growth at 10 µM,[8],27%
same,growth at 1 µM,[9],54%
same,growth at 100 µM,HT-29,-16%
same,growth at 100 µM,NCI-H460,-61%
same,GI50,SK-MEL-28,4470 nM
same,growth at 0.01 µM,SK-MEL-28,97%
same,CC50,SK-MEL-28,> 100000 nM
same,TGI,SK-MEL-28,> 100000 nM
same,GI50,MDA-MB-435,977 nM
same,LC50,MDA-MB-435,> 100000 nM
same,growth at 0.01 µM,MDA-MB-435,90%
same,TGI,MDA-MB-435,3240 nM
same,GI50,SNB-75,437 nM
same,LC50,SNB-75,> 100000 nM
same,growth at 0.01 µM,SNB-75,79%
same,TGI,SNB-75,7240 nM
same,GI50,SNB-19,316 nM
same,LC50,SNB-19,> 100000 nM
same,growth at 0.01 µM,SNB-19,92%
same,TGI,SNB-19,2880 nM
same,GI50,NCI-H226,1050 nM
same,LC50,NCI-H226,7940 nM
same,growth at 0.01 µM,NCI-H226,92%
same,TGI,NCI-H226,2880 nM
same,GI50,[10],1700 nM
same,LC50,[10],> 100000 nM
same,growth at 0.01 µM,[10],81%
same,TGI,[10],5500 nM
same,GI50,CCRF-CEM,288 nM
same,growth at 0.01 µM,CCRF-CEM,98%
same,CC50,CCRF-CEM,> 100000 nM
same,TGI,CCRF-CEM,1000 nM
same,GI50,SN12C,245 nM
same,TGI,SN12C,718 nM
same,CC50,SN12C,> 100000 nM
same,GI50,[11],1370 nM
same,TGI,[11],> 100000 nM
same,CC50,[11],> 100000 nM
same,GI50,M14,3660 nM
same,TGI,M14,> 100000 nM
same,CC50,M14,> 100000 nM
same,GI50,HL-60(TB),562 nM
same,TGI,HL-60(TB),3970 nM
same,CC50,HL-60(TB),> 100000 nM
same,growth at 100 µM,T47D [12],11%
same,growth at 100 µM,PC-3,-26%
same,growth at 0.1 µM,SK-MEL-2 [13],111%
same,growth at 0.1 µM,U-251,86%
same,growth at 0.1 µM,COLO 205 [14],107%
same,growth at 0.1 µM,NCI-H522,97%
same,GI50,[15],1070 nM
same,growth at 0.01 µM,[15],78%
same,CC50,[15],5500 nM
same,TGI,[15],2400 nM

# Reference: ChEMBL document CHEMBL3217615, “Novel 3,5-bis(arylidiene)-4-piperidone based monocarbonyl analogs of curcumin: anticancer activity evaluation and mode of action study” (2014)
